Data from patent publication US7745477B2, “Heteroaryl and benzyl amide compounds” (Hoffman-La Roche Inc., priority 2006, dated 2010).

Target: T1, cholesteryl ester transfer protein (CETP) (Homo sapiens, UniProt P11597)
T1 construct: the source of CETP was human lipoprotein-deprived serum (LPDS); from tissue; host or cells: human lipoprotein-deprived serum (LPDS)
T1 sequence (P11597 18-493): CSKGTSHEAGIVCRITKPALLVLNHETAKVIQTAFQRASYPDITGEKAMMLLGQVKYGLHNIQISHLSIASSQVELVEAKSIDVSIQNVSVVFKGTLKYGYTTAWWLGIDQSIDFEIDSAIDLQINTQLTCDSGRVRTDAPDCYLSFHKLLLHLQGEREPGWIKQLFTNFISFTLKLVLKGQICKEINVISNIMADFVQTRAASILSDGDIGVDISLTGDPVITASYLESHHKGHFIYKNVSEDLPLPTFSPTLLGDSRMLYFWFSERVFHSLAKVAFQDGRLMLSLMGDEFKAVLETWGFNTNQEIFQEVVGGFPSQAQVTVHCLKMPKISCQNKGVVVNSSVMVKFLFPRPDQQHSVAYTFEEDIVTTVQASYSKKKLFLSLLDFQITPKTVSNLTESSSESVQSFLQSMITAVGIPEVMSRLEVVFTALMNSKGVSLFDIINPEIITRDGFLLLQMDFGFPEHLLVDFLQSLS
Experiment: CETP activity SPA assay in the presence of plasma (source of CETP: human lipoprotein-deprived serum, LPDS)
Format: biochemical
Settings: CETP from human lipoprotein-deprived serum (LPDS); transfer of radiolabeled cholesteryl ester from HDL donor to biotin-labeled LDL acceptor particles
Protocol: Activity of CETP inhibitors was determined using a buffer assay system. Partially purified CETP transferred radiolabeled cholesteryl ester from HDL donor particles to biotin-labeled LDL acceptor particles. The reaction was stopped by addition of streptavidin-coupled scintillation proximity assay (SPA) beads. These beads captured the biotinylated acceptor particles and transferred radioactivity was measured. The assay system was purchased and performed according to manufacturer's recommendations (Amersham Biosciences). Inhibitory activity of compounds was determined as percentage of positive control activity containing CETP together with donor and acceptor particles. Serial dilution of compounds was performed in order to determine the IC50 values.
Activity of the compounds was subsequently measured in the presence of plasma using the same assay as described above except that the source of CETP was human lipoprotein-deprived serum (LPDS). Inhibitory activity of compounds was determined as percentage of positive control activity containing all the assay components except compound. Serial dilution of compounds was performed in order to determine the IC50 values.

Structure (SMILES)	IC50 [µM]
CC(C)(C)c1ccc(CN(CCc2ccc(Cl)c(Cl)c2)C(=O)c2cnccc2Cl)cc1 [Compound B3, N-(4-tert-Butyl-benzyl)-4-chloro-N-[2-(3,4-dichloro-phenyl)-ethyl]-nicotinamide]	66.8
O=C(c1cc(Cl)cc(Cl)c1)N(CCc1ccc(Cl)cc1)Cc1ccc(C(F)(C(F)(F)F)C(F)(F)F)cc1 [Compound B104, 3,5-Dichloro-N-[2-(4-chloro-phenyl)-ethyl]-N-[4-(1,2,2,2-tetrafluoro-1-trifluoromethyl-ethyl)-benzyl]-benzamide]	1.25
CCC(C)(C)c1ccc(CN(CCc2ccc(Cl)cc2)C(=O)c2cc(Cl)cc(Cl)c2)cc1 [Compound B108, 3,5-Dichloro-N-[2-(4-chloro-phenyl)-ethyl]-N-[4-(1,1-dimethyl-propyl)-benzyl]-benzamide]	0.409
